IC50 data for 24 molecules are collected here from patent US9452986B2, “6-heteroaryloxy- or 6-aryloxy-quinoline-2-carboxamides and method of use” (AbbVie Inc., priority 2014, dated 2016).

Read-outs that look alike come from different tables or passages of the source. A value given as a limit tells only on which side of the number the result lay.

The target in this assay is recombinant human Nav1.7 (Homo sapiens (Human), UniProt Q15858). Kind of assay: FRET-based membrane potential assay, recombinant human sodium channel Nav1.7. Format: cell-based. The procedure:
FRET-Based Membrane Potential Assays.
Recombinant, Human Sodium Channel, Nav1.7.
On the day of the assay, medium was removed by aspiration, and cells were washed with assay buffer [HBSS (Invitrogen, Carlsbad, Calif.) containing 20 mM HEPES (Invitrogen, Carlsbad, Calif.)]. […] Cells were incubated for 40 minutes at room temperature in the dark. […] The cells were incubated for 90 minutes at room temperature in the dark. Fluorescence readings were made using a FLIPR®^TETRA (Molecular Devices, Sunnyvale Calif.) equipped with voltage-sensor probe optics. At the start of each experiment the optimal (EC80) concentration of depolarizing agent (veratridine) was determined by testing a dilution curve of assay buffer containing veratridine (Sigma-Aldrich, St. Louis, Mo.) and 1 mg/mL scorpion venom (SVqq, from Leiurus quinquestriatus; Sigma-Aldrich, St. Louis, Mo.). […] Test compounds in the daughter plate were diluted to (˜3×) solutions in assay buffer immediately before assaying. Using the FLIPR®^TETRA, 20 μL of the (3×) compound solutions were first added to the cells, then 20 μL of depolarizing solution (3×EC80 veratridine+SVqq) were added 3 minutes later to activate the channel. […] IC50 values were calculated from curve fits of the ratio data using a four-parameter logistic Hill equation (Accelrys Assay Explorer 3.3 Client, Accelrys, San Diego, Calif.) with percent inhibition plotted against compound concentration.

Setting [1] is: HEK293 cells stably expressing recombinant human Nav1.7, veratridine + scorpion venom depolarization, read-out: FRET-Membrane Potential Nav1.7 IC50.
[2] abbreviates: read-out: FRET-Membrane Potential Nav1.7 IC50.

Chain of recombinant human Nav1.7 (Q15858 whole entry): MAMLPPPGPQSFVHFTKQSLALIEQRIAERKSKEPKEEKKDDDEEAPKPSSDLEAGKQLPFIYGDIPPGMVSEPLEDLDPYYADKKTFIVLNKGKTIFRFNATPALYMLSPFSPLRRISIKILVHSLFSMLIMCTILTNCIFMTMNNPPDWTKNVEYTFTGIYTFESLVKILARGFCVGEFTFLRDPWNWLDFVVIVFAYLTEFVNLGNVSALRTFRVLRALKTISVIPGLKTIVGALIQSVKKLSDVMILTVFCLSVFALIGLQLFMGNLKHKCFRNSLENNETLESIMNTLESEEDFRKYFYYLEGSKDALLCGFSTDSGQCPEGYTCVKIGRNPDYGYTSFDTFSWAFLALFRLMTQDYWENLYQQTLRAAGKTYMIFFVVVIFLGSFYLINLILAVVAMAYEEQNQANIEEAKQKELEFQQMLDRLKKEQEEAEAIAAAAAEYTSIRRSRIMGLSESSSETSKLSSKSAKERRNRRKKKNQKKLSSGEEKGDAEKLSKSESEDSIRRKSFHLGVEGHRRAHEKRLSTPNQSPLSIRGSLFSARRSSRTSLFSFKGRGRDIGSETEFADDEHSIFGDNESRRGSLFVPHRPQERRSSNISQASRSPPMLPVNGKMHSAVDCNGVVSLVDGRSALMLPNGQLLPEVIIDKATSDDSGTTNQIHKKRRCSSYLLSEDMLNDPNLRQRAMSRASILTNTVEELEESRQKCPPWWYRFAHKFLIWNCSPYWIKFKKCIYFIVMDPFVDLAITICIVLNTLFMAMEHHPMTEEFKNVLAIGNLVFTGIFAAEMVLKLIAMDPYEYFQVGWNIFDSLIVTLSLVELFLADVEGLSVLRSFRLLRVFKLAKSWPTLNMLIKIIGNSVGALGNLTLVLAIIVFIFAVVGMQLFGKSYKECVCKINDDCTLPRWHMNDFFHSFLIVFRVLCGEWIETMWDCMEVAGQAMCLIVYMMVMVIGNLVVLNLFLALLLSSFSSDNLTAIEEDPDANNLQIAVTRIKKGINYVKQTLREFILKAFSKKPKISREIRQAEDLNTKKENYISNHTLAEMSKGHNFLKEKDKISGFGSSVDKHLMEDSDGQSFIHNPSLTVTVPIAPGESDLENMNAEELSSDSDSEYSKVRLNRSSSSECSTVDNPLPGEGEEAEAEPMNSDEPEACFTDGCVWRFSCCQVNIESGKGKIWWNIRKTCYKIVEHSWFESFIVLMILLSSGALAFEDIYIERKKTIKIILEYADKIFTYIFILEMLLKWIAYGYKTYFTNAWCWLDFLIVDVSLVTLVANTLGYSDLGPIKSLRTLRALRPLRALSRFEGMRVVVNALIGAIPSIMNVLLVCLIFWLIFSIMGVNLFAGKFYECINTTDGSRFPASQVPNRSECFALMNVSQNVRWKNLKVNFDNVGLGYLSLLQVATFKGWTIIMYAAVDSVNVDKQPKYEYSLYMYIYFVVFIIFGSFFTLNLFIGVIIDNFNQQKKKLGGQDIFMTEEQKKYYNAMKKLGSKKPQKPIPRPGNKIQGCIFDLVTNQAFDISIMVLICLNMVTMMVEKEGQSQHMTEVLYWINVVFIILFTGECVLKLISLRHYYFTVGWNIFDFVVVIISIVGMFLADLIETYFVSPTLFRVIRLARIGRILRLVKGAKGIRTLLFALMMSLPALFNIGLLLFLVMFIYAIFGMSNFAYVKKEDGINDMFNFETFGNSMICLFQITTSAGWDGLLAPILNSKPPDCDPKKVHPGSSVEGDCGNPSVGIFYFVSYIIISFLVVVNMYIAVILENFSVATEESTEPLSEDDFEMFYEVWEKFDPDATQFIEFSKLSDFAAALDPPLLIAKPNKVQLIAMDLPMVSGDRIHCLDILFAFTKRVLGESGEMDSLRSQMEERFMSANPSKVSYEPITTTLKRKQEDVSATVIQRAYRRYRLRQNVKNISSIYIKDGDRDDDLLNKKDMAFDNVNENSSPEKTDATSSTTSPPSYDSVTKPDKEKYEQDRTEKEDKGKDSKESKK

Usually IC50 stands for the midpoint of a concentration-inhibition curve. On to `N#CC1CN(C(=O)c2ccc3cc(Oc4ccc(C(F)(F)F)cn4)ccc3n2)C1` [Example 367, 1-[(6-{[5-(trifluoromethyl)pyridin-2-yl]oxy}quinolin-2-yl)carbonyl]azetidine-3-carbonitrile], for which, under setting [1], the IC50 was 2.53 µM. On the same count and under the same terms, in the case of `O=C(c1ccc2cc(Oc3ccc(C(F)F)cn3)ccc2n1)N1CCN[C@@H](CO)C1` [Example 440, (6-{[5-(difluoromethyl)pyridin-2-yl]oxy}quinolin-2-yl) [(3R)-3-(hydroxymethyl)piperazin-1-yl]methanone] it was 12.6 µM; in that of `NC(=O)C1CN(C(=O)c2ccc3cc(Oc4ccc(C(F)(F)F)cn4)ccc3n2)CCN1` (stereo not drawn) [Example 402, 4-[(6-{[5-(trifluoromethyl)pyridin-2-yl]oxy}quinolin-2-yl)carbonyl]piperazine-2-carboxamide], 9.07 µM.

As for `CS(=O)(=O)CCCCNC(=O)c1ccc2cc(Oc3ccc(C(F)(F)F)cn3)ccc2n1` [Example 612, N-[4-(methylsulfonyl)butyl]-6-{[5-(trifluoromethyl)pyridin-2-yl]oxy}quinoline-2-carboxamide], the IC50 under setting [2] amounted to 2.93 µM.

Regarding `O=C(NCC(=O)N1CCOCC1)c1ccc2cc(Oc3ccc(C(F)F)cn3)ccc2n1` [Example 458, 6-{[5-(difluoromethyl)pyridin-2-yl]oxy}-N-[2-(morpholin-4-yl)-2-oxoethyl]quinoline-2-carboxamide], the IC50 under setting [1] came to 1.19 µM.

For `O=C(c1ccc2cc(Oc3ccc(C(F)(F)F)cn3)ccc2n1)N1CCc2nc[nH]c(=O)c2C1` [Example 342, 6-[(6-{[5-(trifluoromethyl)pyridin-2-yl]oxy}quinolin-2-yl)carbonyl]-5,6,7,8-tetrahydropyrido[4,3-d]pyrimidin-4(3H)-one], the 50% inhibitory concentration (IC50) under setting [1] worked out at 3.38 µM.

Turning to `O=C(c1ccc2cc(Oc3ccc(C(F)(F)F)nc3)ccc2n1)N1C[C@@H](O)[C@@H](O)C1` [Example 546, [cis-3,4-dihydroxypyrrolidin-1-yl](6-{[6-(trifluoromethyl)pyridin-3-yl]oxy}quinolin-2-yl)methanone], the IC50 (FRET-Membrane Potential Nav1.7 IC50) worked out at 10.1 µM.

As for `N#Cc1ccc(Oc2ccc3nc(C(=O)N[C@H]4CC[C@H](O)CC4)ccc3c2)cc1` [Example 125, 6-(4-cyanophenoxy)-N-(trans-4-hydroxycyclohexyl)quinoline-2-carboxamide], the IC50 under setting [1] was determined as 3.46 µM.

For the molecule `O=C(NCCF)c1ccc2cc(Oc3ccc(C(F)(F)F)cn3)ccc2n1` [Example 346, N-(2-fluoroethyl)-6-{[5-(trifluoromethyl)pyridin-2-yl]oxy}quinoline-2-carboxamide], the IC50 under setting [1] was 2.5 µM. Still for that read-out and setting: the result for `O=C(NCC(=O)N1C[C@@H](O)[C@H](O)C1)c1ccc2cc(Oc3ccc(C(F)(F)F)cn3)ccc2n1` [Example 563, N-{2-[(3R,4R)-3,4-dihydroxypyrrolidin-1-yl]-2-oxoethyl}-6-{[5-(trifluoromethyl)pyridin-2-yl]oxy}quinoline-2-carboxamide] reads more than 20 µM. The same measure, in the same setting: the result for `COCC1(F)CCN(C(=O)c2ccc3cc(Oc4ccc(C(F)(F)F)cn4)ccc3n2)C1` (stereo not drawn) [Example 487, [3-fluoro-3-(methoxymethyl)pyrrolidin-1-yl](6-{[5-(trifluoromethyl)pyridin-2-yl]oxy}quinolin-2-yl)methanone] reads 0.919 µM; that for `O=C(N[C@@H]1CS(=O)(=O)C[C@H]1O)c1ccc2cc(Oc3ccc(C(F)F)cn3)ccc2n1` [Example 477, 6-{[5-(difluoromethyl)pyridin-2-yl]oxy}-N-[(3S,4S)-4-hydroxy-1,1-dioxidotetrahydrothiophen-3-yl]quinoline-2-carboxamide], 5.51 µM; that for `CC(C)NC(=O)C1CN(C(=O)c2ccc3cc(Oc4ccc(C(F)(F)F)cn4)ccc3n2)CCN1` (stereo not drawn) [Example 321, N-isopropyl-4-[(6-{[5-(trifluoromethyl)pyridin-2-yl]oxy}quinolin-2-yl)carbonyl]piperazine-2-carboxamide], 8.07 µM. Regarding `O=C(NCC(=O)N1CCC(F)(F)C1)c1ccc2cc(Oc3ccc(C(F)(F)F)cn3)ccc2n1` [Example 565, N-[2-(3,3-difluoropyrrolidin-1-yl)-2-oxoethyl]-6-{[5-(trifluoromethyl)pyridin-2-yl]oxy}quinoline-2-carboxamide], under setting [1], the IC50 came to 3.43 µM. With `O=C(N[C@@H]1CC[C@@H]2CN(Cc3ccccc3)C[C@@H]21)c1ccc2cc(Oc3ccc(C(F)(F)F)cn3)ccc2n1` [Example 259, N-[(3aR,4R,6aS)-2-benzyloctahydrocyclopenta[c]pyrrol-4-yl]-6-{[5-(trifluoromethyl)pyridin-2-yl]oxy}quinoline-2-carboxamide], the half-maximal inhibitory concentration (IC50) under setting [2] came out at 2.06 µM. For `CN1CCN(C(=O)c2ccc3cc(Oc4ccc(C#N)cc4)ccc3n2)CC1` [Example 81, 4-({2[(4-methylpiperazin-1-yl)carbonyl]quinolin-6-yl}oxy)benzonitrile], the IC50 under setting [1] amounted to 1.87 µM. Still for that read-out and setting: the result for `O=C(c1ccc2cc(Oc3ccc(C(F)(F)F)nc3)ccc2n1)N1CC(N2CCOCC2)C1` [Example 554, [3-(morpholin-4-yl)azetidin-1-yl](6-{[6-(trifluoromethyl)pyridin-3-yl]oxy}quinolin-2-yl)methanone] reads 14.1 µM. In the case of `O=C(c1ccc2cc(Oc3ccc(C(F)(F)F)cn3)ccc2n1)N1CCC(O)C(F)(F)C1` (stereo not drawn) [Example 190, (3,3-difluoro-4-hydroxypiperidin-1-yl)(6-{[5-(trifluoromethyl)pyridin-2-yl]oxy}quinolin-2-yl)methanone], the IC50 under setting [2] is 12.1 µM. As for `CCN1CCN(C(=O)c2ccc3cc(Oc4ccc(C(F)(F)F)cn4)ccc3n2)CC1` [Example 294, (4-ethylpiperazin-1-yl)(6-{[5-(trifluoromethyl)pyridin-2-yl]oxy}quinolin-2-yl)methanone], the IC50 under setting [1] was 1.4 µM. For `O=C(N[C@H]1CS(=O)(=O)C[C@@H]1O)c1ccc2cc(Oc3ccc(C(F)(F)F)cn3)ccc2n1` [Example 425, N-[(3R,4R)-4-hydroxy-1,1-dioxidotetrahydrothiophen-3-yl]-6-{[5-(trifluoromethyl)pyridin-2-yl]oxy}quinoline-2-carboxamide], under setting [2], the IC50 is 9.09 µM.

Regarding `O=C(c1ccc2cc(Oc3ccc(C(F)(F)F)nc3)ccc2n1)N1CC[C@@H](F)C1` [Example 548, [(3R)-3-fluoropyrrolidin-1-yl](6-{[6-(trifluoromethyl)pyridin-3-yl]oxy}quinolin-2-yl)methanone], the IC50 under setting [1] came out at 4.05 µM. With `COC[C@@H]1CN(C(=O)c2ccc3cc(Oc4ccc(C(F)(F)F)cn4)ccc3n2)CCN1` [Example 593, [(3S)-3-(methoxymethyl)piperazin-1-yl](6-{[5-(trifluoromethyl)pyridin-2-yl]oxy}quinolin-2-yl)methanone], under setting [2], the IC50 is 0.238 µM. For `CS(=O)(=O)[C@@H]1CN(C(=O)c2ccc3cc(Oc4ccc(C(F)(F)F)cn4)ccc3n2)C[C@H]1O` (relative stereo) [Example 351, [trans-3-hydroxy-4-(methylsulfonyl)pyrrolidin-1-yl](6-{[5-(trifluoromethyl)pyridin-2-yl]oxy}quinolin-2-yl)methanone], under setting [1], the IC50 worked out at 3.6 µM. `O=C(c1ccc2cc(Oc3ccc(C(F)(F)F)cn3)ccc2n1)N1CCN2C(=O)CCC2C1` (stereo not drawn) [Example 288, 2-[(6-{[5-(trifluoromethyl)pyridin-2-yl]oxy}quinolin-2-yl)carbonyl]hexahydropyrrolo[1,2-a]pyrazin-6(2H)-one]: under setting [1], the IC50 was 7.88 µM.
